Data published in patent US7375107B2 (priority 2003, dated 2008).

Assays:
[1] = biological target: T1, epithelial sodium channels (ENaC), airway epithelial monolayers (Canis lupus familiaris, UniProt A0A8I3MKE6+A0A8I3Q679+Q95165); assay: Sodium channel blocking activity: lumenal drug inhibition of airway epithelial sodium currents (short circuit current, ISC) in Ussing chambers; assay type: cell-based, canine; settings: for Fold Amiloride** (PSA 4022 = 100): relative potency for PSA 4022 = 100 using EC50 from PSA 4022 in same run
T1 sequence (A0A8I3Q679 1-649): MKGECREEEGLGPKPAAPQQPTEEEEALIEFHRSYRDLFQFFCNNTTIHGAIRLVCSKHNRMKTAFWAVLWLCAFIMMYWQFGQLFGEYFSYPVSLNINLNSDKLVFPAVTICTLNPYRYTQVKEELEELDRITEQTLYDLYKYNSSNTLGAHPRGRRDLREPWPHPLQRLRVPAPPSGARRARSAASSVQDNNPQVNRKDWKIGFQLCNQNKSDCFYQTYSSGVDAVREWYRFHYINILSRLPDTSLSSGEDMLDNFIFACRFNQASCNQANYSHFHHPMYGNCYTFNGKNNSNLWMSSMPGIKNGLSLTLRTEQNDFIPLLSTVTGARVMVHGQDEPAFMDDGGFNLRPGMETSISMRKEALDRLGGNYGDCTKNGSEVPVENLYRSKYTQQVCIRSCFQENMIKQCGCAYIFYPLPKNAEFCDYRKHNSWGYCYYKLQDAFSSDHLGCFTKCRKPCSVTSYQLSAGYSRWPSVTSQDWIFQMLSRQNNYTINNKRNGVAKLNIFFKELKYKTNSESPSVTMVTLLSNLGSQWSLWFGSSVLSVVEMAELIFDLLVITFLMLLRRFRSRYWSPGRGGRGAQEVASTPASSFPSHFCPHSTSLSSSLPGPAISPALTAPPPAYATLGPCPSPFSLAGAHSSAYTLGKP
T1 sequence (Q95165 1-641): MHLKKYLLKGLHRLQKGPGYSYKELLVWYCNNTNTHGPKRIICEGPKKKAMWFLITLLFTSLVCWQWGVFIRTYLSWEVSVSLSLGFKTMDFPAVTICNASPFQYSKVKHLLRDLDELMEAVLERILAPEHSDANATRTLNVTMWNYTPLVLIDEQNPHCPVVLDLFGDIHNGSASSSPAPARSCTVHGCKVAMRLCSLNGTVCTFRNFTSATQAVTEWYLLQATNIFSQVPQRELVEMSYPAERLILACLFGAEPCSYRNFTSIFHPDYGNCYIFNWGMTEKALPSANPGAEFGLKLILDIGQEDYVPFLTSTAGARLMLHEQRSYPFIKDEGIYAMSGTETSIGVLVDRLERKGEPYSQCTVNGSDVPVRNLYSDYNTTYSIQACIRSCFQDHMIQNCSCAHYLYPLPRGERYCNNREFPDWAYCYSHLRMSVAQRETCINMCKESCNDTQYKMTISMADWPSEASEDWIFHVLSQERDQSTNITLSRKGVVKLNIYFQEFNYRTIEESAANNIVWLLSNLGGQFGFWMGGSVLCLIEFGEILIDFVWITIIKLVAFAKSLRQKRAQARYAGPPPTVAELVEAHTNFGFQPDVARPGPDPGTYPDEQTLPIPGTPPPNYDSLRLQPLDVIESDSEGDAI
T1 sequence (A0A8I3MKE6 1-646): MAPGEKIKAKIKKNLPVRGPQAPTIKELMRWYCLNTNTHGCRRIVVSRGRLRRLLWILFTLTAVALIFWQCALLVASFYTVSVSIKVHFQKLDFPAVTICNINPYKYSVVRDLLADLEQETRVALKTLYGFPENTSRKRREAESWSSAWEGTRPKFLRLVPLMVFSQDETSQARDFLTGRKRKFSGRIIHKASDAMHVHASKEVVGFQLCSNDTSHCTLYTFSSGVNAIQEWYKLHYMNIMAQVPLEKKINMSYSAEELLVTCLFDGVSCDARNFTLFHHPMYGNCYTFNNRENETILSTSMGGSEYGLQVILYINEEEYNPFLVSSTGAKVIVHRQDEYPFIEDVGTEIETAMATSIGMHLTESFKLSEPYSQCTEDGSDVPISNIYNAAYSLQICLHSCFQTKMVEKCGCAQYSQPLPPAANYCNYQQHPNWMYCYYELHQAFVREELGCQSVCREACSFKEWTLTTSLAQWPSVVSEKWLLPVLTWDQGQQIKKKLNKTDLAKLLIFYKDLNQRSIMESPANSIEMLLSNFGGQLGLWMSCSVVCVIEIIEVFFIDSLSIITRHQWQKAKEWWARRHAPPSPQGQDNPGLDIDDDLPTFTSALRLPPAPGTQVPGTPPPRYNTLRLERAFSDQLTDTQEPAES
Method: One assay used to assess mechanism of action and/or potency of the compounds of the present invention involves the determination of lumenal drug inhibition of airway epithelial sodium currents measured under short circuit current (ISC) using airway epithelial monolayers mounted in Ussing chambers. Cells obtained from freshly excised human, dog, sheep or rodent airways are seeded onto porous 0.4 micron Snapwell™ Inserts (CoStar), cultured at air-liquid interface (ALI) conditions in hormonally defined media, and assayed for sodium transport activity (ISC) while bathed in Krebs Bicarbonate Ringer (KBR) in Using chambers. All test drug additions are to the lumenal bath with half-log dose addition protocols (from 1×10^−11 M to 3×10^−5 M), and the cumulative change in ISC (inhibition) recorded. All drugs are prepared in dimethyl sulfoxide as stock solutions at a concentration of 1×10^−2 M and stored at −20° C. Eight preparations are typically run in parallel; two preparations per run incorporate amiloride and/or benzamil as positive controls. After the maximal concentration (5×10^−5 M) is administered, the lumenal bath is exchanged three times with fresh drug-free KBR solution, and the resultant ISC measured after each wash for approximately 5 minutes in duration. Reversibility is defined as the percent return to the baseline value for sodium current after the third wash. All data from the voltage clamps are collected via a computer interface and analyzed off-line.
Dose-effect relationships for all compounds are considered and analyzed by the Prism 3.0 program. IC50 values, maximal effective concentrations, and reversibility are calculated and compared to amiloride and benzamil as positive controls.
Treatment Protocol (Assessment of Activity at t-4 hours): The following variation of the standard protocol was used to assess the durability of response following a single exposure to vehicle control (distilled water), positive control compounds (amiloride or benzamil), or investigational agents. At time zero, vehicle control (distilled water), positive control (amiloride), or investigational compounds were aerosolized from a 4 ml volume using a Pari LC JetPlus nebulizer to free-breathing animals. The nebulizer was driven by compressed air with a flow of 8 liters per minute. The time to deliver the solution was 10 to 12 minutes. Animals were restrained in an upright position in a specialized body harness for 4 hours. At the end of the 4-hour period animals received a single dose of aerosolized ^99mTc-Human serum albumin (3.1 mg/ml; containing approximately 20 mCi) from a Raindrop Nebulizer. Animals were extubated immediately following delivery of the total dose of radio-tracer. A baseline deposition image was obtained immediately after radio-aerosol administration. Serial images of the lung were obtained at 15-minute intervals during the first 2 hours after administration of the radio-tracer (representing hours 4 through 6 after drug administration) and hourly for the next 2 hours after dosing for a total observation period of 4 hours. A washout period of at least 7 days separated dosing sessions with different experimental agents. Statistics: Data were analyzed using SYSTAT for Windows, version 5. Data were analyzed using a two-way repeated ANOVA (to assess overall effects), followed by a paried t-test to identify differences between specific pairs. Significance was accepted when P was less than or equal to 0.05. […] The compounds can be further tested for potency in canine bronchial epithelia using the in vitro assay described above. The results for the compounds of the present invention are reported as fold-enhancement values relative to amiloride.
Sodium Channel Blocking Activity of Selected Alaphatic Pyrazinoylguanidines.

melting point | SMILES | Fold Amiloride** (PSA 4022 = 100) [1] | EC50 ([1]; sodium channel blocking activity, short circuit current in airway epithelial monolayers)
– | N=C(NCCCCCCCCCCN)NC(=O)c1nc(Cl)c(N)nc1N [compound 19487] | 37 ± 1 (n = 4) | –
– | N=C(N)NCCCCCCCCCNC(=N)NC(=O)c1nc(Cl)c(N)nc1N [compound 19006] | 11 ± 2 (n = 3) | –
– | N=C(NCCCCCCCCCCCN)NC(=O)c1nc(Cl)c(N)nc1N [compound 23682] | 51 ± 15 (n = 3) | –
– | N=C(N)NCCCCCCCNC(=N)NC(=O)c1nc(Cl)c(N)nc1N [compound 19155] | 8 ± 7 (n = 3) | –
– | N=C(N)NCCCCCCCCNC(=N)NC(=O)c1nc(Cl)c(N)nc1N [compound 19604] | 63 ± 61 (n = 4) | –
– | CC(C)(C)OC(=O)NCCCCCCCCCCCCNC(=N)NC(=O)c1nc(Cl)c(N)nc1N [compound 23776] | 7 (n = 1) | –
– | N=C(N)NCCCCCCCCCCCNC(=N)NC(=O)c1nc(Cl)c(N)nc1N [compound 23991] | 20 ± 12 (n = 4) | –
– | CC(C)(C)OC(=O)NCCCCCCCCNC(=N)NC(=O)c1nc(Cl)c(N)nc1N [compound 19156] | 18 ± 2 (n = 2) | –
– | CC(C)(C)OC(=O)NCCCCCCCCCNC(=N)NC(=O)c1nc(Cl)c(N)nc1N [compound 19484] | 12 (n = 1) | –
– | N=C(NCCCCCCCCCCCCN)NC(=O)c1nc(Cl)c(N)nc1N [compound 23609] | 66 ± 36 (n = 4) | –
– | CC(C)(C)OC(=O)NCCCOCCCNC(=N)NC(=O)c1nc(Cl)c(N)nc1N [compound 19333] | 7 ± 2 (n = 4) | –
– | N=C(NCCCCCCCCN)NC(=O)c1nc(Cl)c(N)nc1N [compound 19336] | 12 ± 3 (n = 3) | –
– | N=C(NCCCCCCCN)NC(=O)c1nc(Cl)c(N)nc1N [compound 18705] | 8 ± 2 (n = 4) | –
– | N=C(N)NCCCCCCCCCCNC(=N)NC(=O)c1nc(Cl)c(N)nc1N [compound 23608] | 41 ± 29 (n = 2) | –
– | N=C(N)NCCCCCCCCCCCCNC(=N)NC(=O)c1nc(Cl)c(N)nc1N [compound 23683] | 68 ± 48 (n = 6) | –
– | N=C(NCCCCCCCCCN)NC(=O)c1nc(Cl)c(N)nc1N [compound 19335] | 19 ± 7 (n = 4) | 36 ± 7 nM
– | N=C(NCCCCCCN)NC(=O)c1nc(Cl)c(N)nc1N [compound 18706] | 4 ± 1 (n = 4) | –
89 to 93 °C | CC(C)(C)OC(=O)N=C(NCCCOCCCNC(=N)NC(=O)c1nc(Cl)c(N)nc1N)NC(=O)OC(C)(C)C | – | –
